This is an account of results in US20260356803A1, “Nicotinamide derivatives” (Board of Regents, The University of Texas System, priority 2024, published 2026).

Structures are written as SMILES. Like-named read-outs stand apart in the source and are kept apart here.

One data set has as its system NAMPT and NMNAT1. Briefly: Cell-free metabolism by NAMPT and NMNAT1. The following applies: role: substrate, 200 μM compound, NMNAT1, 0.4 mM PRPP, 2.5 mM ATP, 37 °C. Format: biochemical. Here is the method:
We reasoned that 1 and 9 would likely be metabolized to 1-mononucleotide (1-MN) and 9-mononucleotide (9-MN) by NAMPT and then to 1-adenine dinucleotide (1-AD) and 9-adenine dinucleotide (9-AD) by NMNAT1. Thus, we analyzed extracts from cell-free reactions that co-incubate each compound with NAMPT, NMNAT1, PRPP, and ATP by high-resolution mass spectrometry to identify these putative metabolites based on exact mass. […] To test whether these compound metabolites were also produced in cells, we analyzed metabolic extracts from cells treated with either 1 or 9.
A reaction mixture containing 50 mM Tris pH 8, 0.4 mM PRPP, 2.5 mM ATP, 12 mM MgCl2, 0.02% BSA, 1 μM NAMPT, 100 nM NMNAT1 and 200 μM compound 9 or 1 was incubated at 37 °C. Fifty microliter aliquots were quenched at the indicated time points by adding two volumes of acetonitrile with 0.1% formic acid and vortexing for 15 seconds. After incubation for ten minutes at room temperature, samples were centrifuged at 13,200 rpm for 5 minutes. The supernatants were filtered through 0.2 μm PVDF filters (Sigma #SLGV004SL) and analyzed by LC-MS/TOF. […]
Data analysis for TOF data was performed using SCIEX MultiQuant software version 3.0.3. For each of the compounds monitored, the theoretical exact m/z was calculated. […]

Data set [1] in a line: Mouse pharmacokinetics in plasma and brain. Format: in vivo, CD1 mice. The following applies: for Kp / Cmax: mouse; for Kp: read-out: brain to blood exposure (AUCBrain/AUCplasma). Here is the method: GBM, which is reported to be a potential target for these compounds, is an intracranial tumor, and thus, effective drugs must cross the blood-brain barrier. Therefore, in addition to plasma, we analyzed compound and metabolite levels in mouse brain. Following the administration of a single 5 mg/kg intravenous (IV) injection of either 1 or 9, we quantified the levels of each compound in both plasma and brain. […] The brain to blood exposure, represented by the ratio of the area under the curve between brain and plasma (AUCBrain/AUCplasma), was 3.45 for 1 and 2.85 for 9.
Next, we analyzed the levels of metabolites that result from the metabolism of 1 and 9 through the NAD salvage pathway.
MS conditions were identical. The HPLC conditions were as follows: Solvent A: water including 0.1% formic acid (LC-MS) grade. Solvent B: Acetonitrile including %0.1 formic acid (LC-MS) grade. Gradient condition was 0-3 min: 3% B, 17 min: 60.5% B, 17.1 min Flow to 0.25 mL/min, 17 to 20 min hold 95% B: 20.5-25 min hold 3% B, 24.5 flow to 0.2 mL/min. Total run time: 25 mins.
Data analysis for TOF data was performed using SCIEX MultiQuant software version 3.0.3. For each of the compounds monitored, the theoretical exact m/z was calculated. A range of ±10 ppm was extracted around the theoretical mass and used to create an analytical method in MultiQuant. Extracted areas for parent compounds 1 and 9 in S462 cells and mice were normalized to the internal standard tolbutamide, while parent compounds 1 and 9 in cell-free reactions and all metabolite levels were presented as peak areas without normalization.
Six week old female CD1 mice (Charles River, Wilmington, MA) were dosed with 5 mg/kg 1 or 9 formulated as 5% DMSO/10% PEG400/85% D5W (5% dextrose in water, pH 7.4) in a volume of 0.2 ml/mouse. Animals were euthanized by inhalation overdose of CO2 at various points postdose. Blood was collected by cardiac puncture into K2EDTA tubes and kept on ice until they were spun at 9600×g for 10 min at 4 °C for plasma. Brains were harvested, rinsed briefly with PBS to remove surface adhering blood, weighed and then snap frozen in liquid nitrogen before storing along with plasma at −80 °C until processing. Brains were homogenized in a volume of PBS equal to 3× their weight in g. One hundred microliters of plasma or brain homogenate was mixed with […] of methanol containing 0.15% formic acid and 37.5 ng/ml tolbutamide internal standard. Samples were vortexed for 15 seconds, incubated at RT for 10 min and then spun at 16,100×g. The resulting supernatant was spun a second time and then filtered through 0.2 μm PVDF filters and analyzed by LC-MS. Samples were quantitated in comparison to a standard curve prepared by spiking 1 or 9 into blank plasma or brain homogenate. The limit of quantitation was set as the lowest point on the standard curve that upon back-calculation was within 20% of the nominal value and was at least three-fold above the average peak area observed for blank plasma or brain. The LOQ for 1 was 1 ng/ml in plasma and 5 ng/ml in brain. The LOQ for 9 was 5 ng/ml in plasma and 10 ng/ml for brain homogenate. Brain concentrations were adjusted to ng/g wet tissue weight and then an estimate was made of drug in brain vasculature using the measured plasma concentration and subtracted from the measured brain concentration.^30 Pharmacokinetic parameters were calculated using the noncompartmental analysis tool with sparse sampling in Phoenix WinNonlin (Certara Corp, Princeton, NJ).

[2] abbreviates: brain, 5 mg/kg IV single dose, read-out: brain Cmax.
[3] abbreviates: brain, 5 mg/kg IV, assuming brain density of 1 g/ml, read-out: brain Cmax.
Setting [4] is: plasma, 5 mg/kg IV single dose, molar, read-out: plasma maximum concentration (Cmax).
The mark [5] stands for this setting: plasma, 5 mg/kg IV single dose, read-out: plasma maximum concentration (Cmax).

As for `O=C(Nc1cccnc1)c1cccs1` [Compound 1, N-(pyridin-3-yl)thiophene-2-carboxamide], the “levels of parent compound over time” value with NAMPT and NMNAT1 is reported as “time-dependent decrease”. Also, the brain penetration entry in data set [1] (5 mg/kg IV) is listed as “brain-penetrant”. In addition, in data set [1] (5 mg/kg IV), the “persistence in brain versus plasma” value was “persisted longer in the brain than in the plasma”. The Kp in data set [1] (brain, 5 mg/kg IV) was 3.45. Further, the Cmax in data set [1] (setting [2]) worked out at 2220 ng/g; in data set [1] (setting [3]) it was 10.8 µM; in data set [1] (setting [4]) it was 5.65 µM; in data set [1] (setting [5]) it was 1160 ng/mL. Further, the “rapidly cleared from plasma by” value in data set [1] (plasma, 5 mg/kg IV) is not above 90 min.

With `O=C(Nc1cccs1)c1cccnc1` [Compound 9, N-(Thiophen-2-yl)nicotinamide], the “levels of parent compound over time” value in the data set with NAMPT and NMNAT1 is reported as “time-dependent decrease”. Besides, the brain penetration result in data set [1] (5 mg/kg IV) is “brain-penetrant”. Also, in data set [1] (5 mg/kg IV), the “persistence in brain versus plasma” value is given as “persisted longer in the brain than in the plasma”. Also, the Kp in data set [1] (brain, 5 mg/kg IV) came out at 2.85. Further, the Cmax in data set [1] (setting [2]) was found to be 1600 ng/g; in data set [1] (setting [3]), 7.8 µM; in data set [1] (setting [4]), 23.7 µM; in data set [1] (setting [5]) it was 4830 ng/mL. Besides, in data set [1] (plasma, 5 mg/kg IV), the “rapidly cleared from plasma by” value is not above 90 min.
